Test results: patent US20230077362A1 (CORTEVA AGRISCIENCE LLC, priority 2019, published 2023)
Where two headings read alike, the source gives them in different places.

Key:
Type in all cases: in vivo
[1] = system: Yellow Fever Mosquito "YFM" (Aedes aegypti), about 1 day-old larvae; experiment: Bioassay on yellow fever mosquito (YFM), 96-well plate larval assay; details: for YFM rating: Table ABC, species YFM, mortality scored after 3 days, C = not tested, D = no activity noticed
Protocol: Example C: Bioassays on Yellow Fever Mosquito “YFM” (Aedes aegypti)
Certain molecules disclosed in this document were tested against YFM using procedures described in the following paragraph. In the reporting of the results, the “YFM Rating Table” was used (See Table Section).
Master plates containing 400 μg of a molecule dissolved in 100 μL of dimethyl sulfoxide (DMSO) (equivalent to a 4000 ppm solution) are used. A master plate of assembled molecules contains 15 μL per well. To this plate, 135 μL of a 90:10 water:acetone mixture is added to each well. A robot (Biomek® NXP Laboratory Automation Workstation) is programmed to dispense 15 μL aspirations from the master plate into an empty 96-well shallow plate (“daughter” plate). There are 6 reps (“daughter” plates) created per master. The created daughter plates are then immediately infested with YFM larvae.
The day before plates are to be treated, mosquito eggs are placed in Millipore water containing liver powder to begin hatching (4 g. into 400 mL). After the daughter plates are created using the robot, they are infested with 220 μL of the liver powder/larval mosquito mixture (about 1 day-old larvae). After plates are infested with mosquito larvae, a non-evaporative lid is used to cover the plate to reduce drying. Plates are held at room temperature for 3 days prior to grading. After 3 days, each well is observed and scored based on mortality.

[2] = system: Cabbage Looper (Trichoplusia ni) ("CL"), second instar larvae; experiment: Bioassay on cabbage looper (CL), 128-well diet tray assay; details: Trichoplusia ni
Method in brief: (§1)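 After sealing with a clear self-adhesive lid, the trays are incubated at 25° C. with 14 h light and 10 h dark for 5 to 7 days; mortality in each well is recorded as a percentage and averaged across the eight wells.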

[3] = system: Beet Armyworm (Spodoptera exigua) ("BAW"), second instar larvae; experiment: Bioassay on beet armyworm (BAW), 128-well diet tray assay; details: Spodoptera exigua
Method in brief: as §1

[4] = system: Green Peach Aphid ("GPA") (Myzus persicae), wingless adult and nymph stages; experiment: Bioassay on green peach aphid (GPA), foliar spray on infested cabbage seedlings; details: Myzus persicae, foliar, 72 h, read-out: GPA rating
Method in brief: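 Values are corrected % control, 100*(X−Y)/X, from live aphid counts per plant under a microscope, treated versus solvent-check plants. Four infested seedlings (20-50 GPA each) per treatment were sprayed to runoff and kept three days near 25° C at ambient RH.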

| Compound | YFM (Biological Results, rating) ([1]; Yellow Fever Mosquito (Aedes aegypti) larvae, scored on mortality after 3 days, C = Not Tested) | pest or weed control at 50 µg/cm2 ([2]; read-out: CL (Biological Results, rating)) [%] | pest or weed control at 50 µg/cm2 ([3]; read-out: BAW (Biological Results, rating)) [%] | YFM rating [1] | pest or weed control at 50 µg/cm2 ([2]; read-out: CL rating) [%] | pest or weed control at 50 µg/cm2 ([3]; read-out: BAW rating) [%] | pest or weed control at 200 µg/mL [4] [%] |
| --- | --- | --- | --- | --- | --- | --- | --- |
| Cc1ccc([N+](=O)[O-])c(N2C(=O)CS/C2=N\C(=O)Nc2ccc(-c3ncn(-c4ccc(OC(F)(F)F)cc4)n3)cc2)c1 [Compound J313, (Z)-1-(3-(5-Methyl-2-nitrophenyl)-4-oxothiazolidin-2-ylidene)-3-(4-(1-(4-(trifluoromethoxy)phenyl)-1H-1,2,4-triazol-3-yl)phenyl)urea] | B (More than 0-Less than 80) | 50 to 100 | 50 to 100 |  |  |  |  |
| Cc1ccc(COCc2ccccc2Cl)c(N2C(=O)CS/C2=N\C(=O)Nc2ccc(-c3ncn(-c4ccc(OC(F)(F)F)cc4)n3)cc2F)c1 [Compound J572, (Z)-1-(3-(2-(((2-Chlorobenzyl)oxy)methyl)-5-methylphenyl)-4-oxothiazolidin-2-ylidene)-3-(2-fluoro-4-(1-(4-(trifluoromethoxy)phenyl)-1H-1,2,4-triazol-3-yl)phenyl)urea] |  |  |  | A (80-100) | 50 to 100 | 50 to 100 |  |
| Cc1ccc(COCC(F)(F)F)c(N2C(=O)CS/C2=N\C(=O)Nc2ccc(-c3cn(-c4ccc(S(=O)(=O)C(F)(F)F)cc4)cn3)cc2F)c1 [Compound J647, (Z)-1-(2-Fluoro-4-(1-(4-((trifluoromethyl)sulfonyl)phenyl)-1H-imidazol-4-yl)phenyl)-3-(3-(5-methyl-2-((2,2,2-trifluoroethoxy)methyl)phenyl)-4-oxothiazolidin-2-ylidene)urea] |  |  |  |  | 50 to 100 | 50 to 100 | 0 to 80 |
| Cc1ccc(COCC(F)F)c(N2C(=O)CS/C2=N\C(=O)Nc2ccc(-c3cn(-c4ccc(S(=O)(=O)C(F)(F)F)cc4)cn3)cc2F)c1 [Compound J648, (Z)-1-(3-(2-((2,2-Difluoroethoxy)methyl)-5-methylphenyl)-4-oxothiazolidin-2-ylidene)-3-(2-fluoro-4-(1-(4-((trifluoromethyl)sulfonyl)phenyl)-1H-imidazol-4-yl)phenyl)urea] |  |  |  |  | 50 to 100 | 50 to 100 | 0 to 80 |
| COC(c1ccc(C)cc1N1C(=O)CS/C1=N\C(=O)Nc1ccc(-c2cn(-c3ccc(S(=O)(=O)C(F)(F)F)cc3)cn2)cc1F)C(F)(F)F (stereo not shown) [Compound J649, (Z)-1-(2-Fluoro-4-(1-(4-((trifluoromethyl)sulfonyl)phenyl)-1H-imidazol-4-yl)phenyl)-3-(3-(5-methyl-2-(2,2,2-trifluoro-1-methoxyethyl)phenyl)-4-oxothiazolidin-2-ylidene)urea] |  |  |  |  | 50 to 100 | 50 to 100 | 0 to 80 |
| CC(C)c1ccc(N(C)C)cc1N1C(=O)CS/C1=N\C(=O)Nc1ccc(-c2cn(-c3ccc(S(=O)(=O)C(F)(F)F)cc3)cn2)cc1F [Compound J650, (Z)-1-(3-(5-(Dimethylamino)-2-isopropylphenyl)-4-oxothiazolidin-2-ylidene)-3-(2-fluoro-4-(1-(4-((trifluoromethyl)sulfonyl)phenyl)-1H-imidazol-4-yl)phenyl)urea] |  |  |  |  | 50 to 100 | 50 to 100 | 0 to 80 |
| COC(C)c1ccc(C#N)cc1N1C(=O)CS/C1=N\C(=O)Nc1ccc(-c2cn(-c3ccc(S(=O)(=O)C(F)(F)F)cc3)cn2)cc1F (stereo not shown) [Compound J652, (Z)-1-(3-(5-Cyano-2-(1-methoxyethyl)phenyl)-4-oxothiazolidin-2-ylidene)-3-(2-fluoro-4-(1-(4-((trifluoromethyl)sulfonyl)phenyl)-1H-imidazol-4-yl)phenyl)urea] |  |  |  |  | 50 to 100 | 50 to 100 | 0 to 80 |
| O=C(/N=C1\SCC(=O)N1c1ccccc1COCC(F)(F)F)Nc1ccc(-c2ncn(-c3ccc(OC(F)(F)F)cc3)n2)cc1F [Compound J659, (Z)-1-(2-Fluoro-4-(1-(4-(trifluoromethoxy)phenyl)-1H-1,2,4-triazol-3-yl)phenyl)-3-(4-oxo-3-(2-((2,2,2-trifluoroethoxy)methyl)phenyl)thiazolidin-2-ylidene)urea] |  |  |  |  | 50 to 100 | 50 to 100 | 0 to 80 |
| CCOCc1ccc(C)cc1N1C(=O)CS/C1=N\C(=O)Nc1ccc(-c2ncn(-c3ccc(OC(F)(F)C(F)(F)F)cc3)n2)cc1F [Compound J663, (Z)-1-(3-(2-(Ethoxymethyl)-5-methylphenyl)-4-oxothiazolidin-2-ylidene)-3-(2-fluoro-4-(1-(4-(perfluoroethoxy)phenyl)-1H-1,2,4-triazol-3-yl)phenyl)urea] |  |  |  |  | 50 to 100 | 50 to 100 | 0 to 80 |
| Cc1ccc(Cc2ccc(F)cc2)c(N2C(=O)CS/C2=N\C(=O)Nc2ccc(-c3ncn(-c4ccc(C(F)(F)F)cc4)n3)cc2F)c1 [Compound J673, (Z)-1-(2-Fluoro-4-(1-(4-(trifluoromethyl)phenyl)-1H-1,2,4-triazol-3-yl)phenyl)-3-(3-(2-(4-fluorobenzyl)-5-methylphenyl)-4-oxothiazolidin-2-ylidene)urea] |  |  |  | A (80-100) | 50 to 100 | 50 to 100 |  |
| Cc1ccc(Cc2cccc(F)c2)c(N2C(=O)CS/C2=N\C(=O)Nc2ccc(-c3ncn(-c4ccc(C(F)(F)F)cc4)n3)cc2F)c1 [Compound J675, (Z)-1-(2-Fluoro-4-(1-(4-(trifluoromethyl)phenyl)-1H-1,2,4-triazol-3-yl)phenyl)-3-(3-(2-(3-fluorobenzyl)-5-methylphenyl)-4-oxothiazolidin-2-ylidene)urea] |  |  |  | A (80-100) | 50 to 100 | 50 to 100 |  |
| Cc1ccc(COCC(F)(F)F)c(N2C(=O)CS/C2=N\C(=O)Nc2ccc(-c3ncn(-c4ccc(C(F)F)cc4)n3)cc2C)c1 [Compound J684, (Z)-1-(4-(1-(4-(Difluoromethyl)phenyl)-1H-1,2,4-triazol-3-yl)-2-methylphenyl)-3-(3-(5-methyl-2-((2,2,2-trifluoroethoxy)methyl)phenyl)-4-oxothiazolidin-2-ylidene)urea] |  |  |  |  | 50 to 100 | 50 to 100 | 0 to 80 |
| Cc1ccc(COCC(F)(F)F)c(N2C(=O)CS/C2=N\C(=O)Nc2ccc(-c3ncn(-c4ccc(C(F)F)cc4)n3)cc2F)c1 [Compound J686, (Z)-1-(4-(1-(4-(Difluoromethyl)phenyl)-1H-1,2,4-triazol-3-yl)-2-fluorophenyl)-3-(3-(5-methyl-2-((2,2,2-trifluoroethoxy)methyl)phenyl)-4-oxothiazolidin-2-ylidene)urea] |  |  |  |  | 50 to 100 | 50 to 100 | 0 to 80 |
| Cc1ccc(Cc2ccccc2F)c(N2C(=O)CS/C2=N\C(=O)Nc2ccc(-c3ncn(-c4ccc(C(F)(F)F)cc4)n3)cc2F)c1 [Compound J708, (Z)-1-(2-Fluoro-4-(1-(4-(trifluoromethyl)phenyl)-1H-1,2,4-triazol-3-yl)phenyl)-3-(3-(2-(2-fluorobenzyl)-5-methylphenyl)-4-oxothiazolidin-2-ylidene)urea] |  |  |  | A (80-100) | 50 to 100 | 50 to 100 |  |
| O=C(/N=C1\SCC(=O)N1c1cc(C(F)(F)F)ccc1COCc1ccccc1)Nc1ccc(-c2ncn(-c3ccc(OC(F)(F)F)cc3)n2)cc1F [Compound J741, (Z)-1-(3-(2-((Benzyloxy)methyl)-5-(trifluoromethyl)phenyl)-4-oxothiazolidin-2-ylidene)-3-(2-fluoro-4-(1-(4-(trifluoromethoxy)phenyl)-1H-1,2,4-triazol-3-yl)phenyl)urea] |  |  |  | A (80-100) |  |  |  |
| Cc1ccc(COCc2ccccc2OC(F)(F)F)c(N2C(=O)CS/C2=N\C(=O)Nc2ccc(-c3ncn(-c4ccc(C(F)(F)F)cc4)n3)cc2F)c1 [Compound J746, (Z)-1-(2-Fluoro-4-(1-(4-(trifluoromethyl)phenyl)-1H-1,2,4-triazol-3-yl)phenyl)-3-(3-(5-methyl-2-(((2-(trifluoromethoxy)benzyl)oxy)methyl)phenyl)-4-oxothiazolidin-2-ylidene)urea] |  |  |  | A (80-100) |  | 50 to 100 |  |
| Cc1ccc(COCc2cc(C(F)(F)F)cc(C(F)(F)F)c2)c(N2C(=O)CS/C2=N\C(=O)Nc2ccc(-c3ncn(-c4ccc(C(F)(F)F)cc4)n3)cc2F)c1 [Compound J748, (Z)-1-(3-(2-(((3,5-Bis(trifluoromethyl)benzyl)oxy)methyl)-5-methylphenyl)-4-oxothiazolidin-2-ylidene)-3-(2-fluoro-4-(1-(4-(trifluoromethyl)phenyl)-1H-1,2,4-triazol-3-yl)phenyl)urea] |  |  |  | A (80-100) |  |  |  |
